The CheMixHub viscosity set
± gives the uncertainty stated by the source.

Test: xn = mol fraction of the nth substance listed

`CCCCCCn1cc[n+](C)c1.F[B-](F)(F)F` + CC(C)O showed a viscosity (293.15 K, 101 kPa, x1 = 0.7711) of 78.36 ± 13 mPa·s, a viscosity (313.15 K, 101 kPa, x1 = 0.08354) of 1.965 ± 0.23 mPa·s and a viscosity (323.15 K, 101 kPa, x1 = 0.238) of 3.035 ± 0.35 mPa·s. The viscosity (323.15 K, 101 kPa, x1 = 0.8507) was 28.15 ± 2.4 mPa·s.
For `COC(=O)OC` + CC(C)O, the viscosity (293.15 K, 101.3 kPa, x1 = 0.0526) was 1.968 ± 0.091 mPa·s, the viscosity (293.15 K, 101.3 kPa, x1 = 0.0934) was 1.706 ± 0.079 mPa·s and the viscosity (293.15 K, 101.3 kPa, x1 = 0.2033) was 1.212 ± 0.058 mPa·s. The viscosity (293.15 K, 101.3 kPa, x1 = 0.3129) was 0.943 ± 0.047 mPa·s, the viscosity (293.15 K, 101.3 kPa, x1 = 0.4065) was 0.817 ± 0.042 mPa·s and the viscosity (293.15 K, 101.3 kPa, x1 = 0.5) was 0.74 ± 0.038 mPa·s. It also gave a viscosity (293.15 K, 101.3 kPa, x1 = 0.6079) of 0.686 ± 0.036 mPa·s, a viscosity (293.15 K, 101.3 kPa, x1 = 0.7026) of 0.647 ± 0.034 mPa·s and a viscosity (293.15 K, 101.3 kPa, x1 = 0.8048) of 0.609 ± 0.033 mPa·s. The viscosity (293.15 K, 101.3 kPa, x1 = 0.9008) was 0.593 ± 0.032 mPa·s, the viscosity (293.15 K, 101.3 kPa, x1 = 0.9507) was 0.601 ± 0.032 mPa·s and the viscosity (298.15 K, 101.3 kPa, x1 = 0.0498) was 1.733 ± 0.081 mPa·s. The viscosity (298.15 K, 101.3 kPa, x1 = 0.0979) was 1.454 ± 0.069 mPa·s, the viscosity (298.15 K, 101.3 kPa, x1 = 0.2031) was 1.046 ± 0.051 mPa·s and the viscosity (298.15 K, 101.3 kPa, x1 = 0.2999) was 0.844 ± 0.043 mPa·s. The viscosity (298.15 K, 101.3 kPa, x1 = 0.3972) was 0.74 ± 0.038 mPa·s, the viscosity (298.15 K, 101.3 kPa, x1 = 0.4892) was 0.69 ± 0.036 mPa·s and the viscosity (298.15 K, 101.3 kPa, x1 = 0.5938) was 0.654 ± 0.035 mPa·s. It also gave a viscosity (298.15 K, 101.3 kPa, x1 = 0.6971) of 0.625 ± 0.033 mPa·s, a viscosity (298.15 K, 101.3 kPa, x1 = 0.7983) of 0.589 ± 0.032 mPa·s and a viscosity (298.15 K, 101.3 kPa, x1 = 0.9012) of 0.567 ± 0.031 mPa·s. For the same compound, the viscosity (298.15 K, 101.3 kPa, x1 = 0.9451) was 0.567 ± 0.031 mPa·s, the viscosity (303.15 K, 101.3 kPa, x1 = 0.0437) was 1.537 ± 0.072 mPa·s and the viscosity (303.15 K, 101.3 kPa, x1 = 0.1028) was 1.287 ± 0.062 mPa·s. It also gave a viscosity (303.15 K, 101.3 kPa, x1 = 0.2013) of 0.992 ± 0.049 mPa·s, a viscosity (303.15 K, 101.3 kPa, x1 = 0.3062) of 0.802 ± 0.041 mPa·s and a viscosity (303.15 K, 101.3 kPa, x1 = 0.384) of 0.713 ± 0.037 mPa·s. For the same compound, the viscosity (303.15 K, 101.3 kPa, x1 = 0.4951) was 0.642 ± 0.034 mPa·s, the viscosity (303.15 K, 101.3 kPa, x1 = 0.5998) was 0.606 ± 0.032 mPa·s and the viscosity (303.15 K, 101.3 kPa, x1 = 0.7053) was 0.581 ± 0.031 mPa·s. It also gave a viscosity (303.15 K, 101.3 kPa, x1 = 0.8047) of 0.562 ± 0.031 mPa·s, a viscosity (303.15 K, 101.3 kPa, x1 = 0.9062) of 0.545 ± 0.03 mPa·s and a viscosity (303.15 K, 101.3 kPa, x1 = 0.937) of 0.542 ± 0.03 mPa·s. For the same compound, the viscosity (313.15 K, 101.3 kPa, x1 = 0.0507) was 1.147 ± 0.056 mPa·s, the viscosity (313.15 K, 101.3 kPa, x1 = 0.0997) was 1.005 ± 0.05 mPa·s and the viscosity (313.15 K, 101.3 kPa, x1 = 0.1984) was 0.799 ± 0.041 mPa·s. The viscosity (313.15 K, 101.3 kPa, x1 = 0.2975) was 0.668 ± 0.035 mPa·s, the viscosity (313.15 K, 101.3 kPa, x1 = 0.4001) was 0.592 ± 0.032 mPa·s and the viscosity (313.15 K, 101.3 kPa, x1 = 0.4884) was 0.553 ± 0.03 mPa·s. The viscosity (313.15 K, 101.3 kPa, x1 = 0.5959) was 0.522 ± 0.029 mPa·s, the viscosity (313.15 K, 101.3 kPa, x1 = 0.7017) was 0.506 ± 0.028 mPa·s and the viscosity (313.15 K, 101.3 kPa, x1 = 0.8014) was 0.494 ± 0.028 mPa·s. For the same compound, the viscosity (313.15 K, 101.3 kPa, x1 = 0.9053) was 0.49 ± 0.027 mPa·s and the viscosity (313.15 K, 101.3 kPa, x1 = 0.9492) was 0.491 ± 0.028 mPa·s.
Work on `CNc1ccccc1` + CCC(=O)O yielded a viscosity (308.15 K, 101.33 kPa, x2 = 0.1405) of 1.689 ± 0.051 mPa·s, a viscosity (308.15 K, 101.33 kPa, x2 = 0.2649) of 1.817 ± 0.052 mPa·s and a viscosity (308.15 K, 101.33 kPa, x2 = 0.3831) of 1.959 ± 0.052 mPa·s. For the same compound, the viscosity (308.15 K, 101.33 kPa, x2 = 0.4886) was 2.058 ± 0.052 mPa·s, the viscosity (308.15 K, 101.33 kPa, x2 = 0.5912) was 2.143 ± 0.052 mPa·s and the viscosity (308.15 K, 101.33 kPa, x2 = 0.6846) was 2.115 ± 0.052 mPa·s. The viscosity (308.15 K, 101.33 kPa, x2 = 0.7714) was 1.931 ± 0.052 mPa·s, the viscosity (308.15 K, 101.33 kPa, x2 = 0.8525) was 1.631 ± 0.051 mPa·s and the viscosity (308.15 K, 101.33 kPa, x2 = 0.8913) was 1.45 ± 0.051 mPa·s. The viscosity (308.15 K, 101.33 kPa, x2 = 0.9291) was 1.226 ± 0.051 mPa·s and the viscosity (308.15 K, 101.33 kPa, x2 = 0.9645) was 1.053 ± 0.051 mPa·s.
In the case of `COC(=O)OC` + CCC(C)O, the viscosity (293.15 K, 101.3 kPa, x1 = 0.0505) is reported as 2.908 ± 0.13 mPa·s, the viscosity (293.15 K, 101.3 kPa, x1 = 0.0986) is reported as 2.37 ± 0.11 mPa·s and the viscosity (293.15 K, 101.3 kPa, x1 = 0.2131) is reported as 1.522 ± 0.072 mPa·s. For the same compound, the viscosity (293.15 K, 101.3 kPa, x1 = 0.2801) was 1.235 ± 0.06 mPa·s, the viscosity (293.15 K, 101.3 kPa, x1 = 0.4092) was 0.94 ± 0.047 mPa·s and the viscosity (293.15 K, 101.3 kPa, x1 = 0.511) was 0.83 ± 0.042 mPa·s. It also gave a viscosity (293.15 K, 101.3 kPa, x1 = 0.6172) of 0.753 ± 0.039 mPa·s, a viscosity (293.15 K, 101.3 kPa, x1 = 0.7072) of 0.696 ± 0.036 mPa·s and a viscosity (293.15 K, 101.3 kPa, x1 = 0.7997) of 0.637 ± 0.034 mPa·s. It also gave a viscosity (293.15 K, 101.3 kPa, x1 = 0.8229) of 0.621 ± 0.033 mPa·s, a viscosity (293.15 K, 101.3 kPa, x1 = 0.9518) of 0.595 ± 0.032 mPa·s and a viscosity (298.15 K, 101.3 kPa, x1 = 0.0572) of 2.399 ± 0.11 mPa·s. The viscosity (298.15 K, 101.3 kPa, x1 = 0.0994) was 1.991 ± 0.092 mPa·s, the viscosity (298.15 K, 101.3 kPa, x1 = 0.1958) was 1.354 ± 0.065 mPa·s and the viscosity (298.15 K, 101.3 kPa, x1 = 0.3029) was 0.991 ± 0.049 mPa·s. It also gave a viscosity (298.15 K, 101.3 kPa, x1 = 0.3339) of 0.926 ± 0.046 mPa·s, a viscosity (298.15 K, 101.3 kPa, x1 = 0.5075) of 0.756 ± 0.039 mPa·s and a viscosity (298.15 K, 101.3 kPa, x1 = 0.6051) of 0.707 ± 0.037 mPa·s. It also gave a viscosity (298.15 K, 101.3 kPa, x1 = 0.7037) of 0.641 ± 0.034 mPa·s, a viscosity (298.15 K, 101.3 kPa, x1 = 0.808) of 0.569 ± 0.031 mPa·s and a viscosity (298.15 K, 101.3 kPa, x1 = 0.9046) of 0.531 ± 0.029 mPa·s. It also gave a viscosity (298.15 K, 101.3 kPa, x1 = 0.9523) of 0.542 ± 0.03 mPa·s, a viscosity (303.15 K, 101.3 kPa, x1 = 0.0573) of 1.931 ± 0.089 mPa·s and a viscosity (303.15 K, 101.3 kPa, x1 = 0.0842) of 1.728 ± 0.081 mPa·s. The viscosity (303.15 K, 101.3 kPa, x1 = 0.1936) was 1.195 ± 0.058 mPa·s, the viscosity (303.15 K, 101.3 kPa, x1 = 0.2981) was 0.943 ± 0.047 mPa·s and the viscosity (303.15 K, 101.3 kPa, x1 = 0.3926) was 0.809 ± 0.041 mPa·s. For the same compound, the viscosity (303.15 K, 101.3 kPa, x1 = 0.4938) was 0.709 ± 0.037 mPa·s, the viscosity (303.15 K, 101.3 kPa, x1 = 0.59) was 0.632 ± 0.034 mPa·s and the viscosity (303.15 K, 101.3 kPa, x1 = 0.6561) was 0.594 ± 0.032 mPa·s. For the same compound, the viscosity (303.15 K, 101.3 kPa, x1 = 0.7945) was 0.549 ± 0.03 mPa·s, the viscosity (303.15 K, 101.3 kPa, x1 = 0.8916) was 0.547 ± 0.03 mPa·s and the viscosity (303.15 K, 101.3 kPa, x1 = 0.9483) was 0.546 ± 0.03 mPa·s. For the same compound, the viscosity (313.15 K, 101.3 kPa, x1 = 0.0498) was 1.512 ± 0.071 mPa·s, the viscosity (313.15 K, 101.3 kPa, x1 = 0.1005) was 1.289 ± 0.062 mPa·s and the viscosity (313.15 K, 101.3 kPa, x1 = 0.2009) was 0.975 ± 0.048 mPa·s. For the same compound, the viscosity (313.15 K, 101.3 kPa, x1 = 0.2952) was 0.795 ± 0.041 mPa·s, the viscosity (313.15 K, 101.3 kPa, x1 = 0.4047) was 0.669 ± 0.035 mPa·s and the viscosity (313.15 K, 101.3 kPa, x1 = 0.5109) was 0.6 ± 0.032 mPa·s. It also gave a viscosity (313.15 K, 101.3 kPa, x1 = 0.6072) of 0.561 ± 0.031 mPa·s, a viscosity (313.15 K, 101.3 kPa, x1 = 0.6982) of 0.529 ± 0.029 mPa·s and a viscosity (313.15 K, 101.3 kPa, x1 = 0.7992) of 0.502 ± 0.028 mPa·s. It also gave a viscosity (313.15 K, 101.3 kPa, x1 = 0.8977) of 0.486 ± 0.027 mPa·s and a viscosity (313.15 K, 101.3 kPa, x1 = 0.9583) of 0.486 ± 0.027 mPa·s.
